Experimental data taken from patent publication US12268674B2, “Mi-2β inhibitor as an immunotherapy agent” (BioVentures, LLC, priority 2021, dated 2025).

Key:
Experiment in all cases: ATPase profile (ATP acyl phosphate probe)
Type in all cases: binding
AARS = target: T1, AARS (Homo sapiens, UniProt P49588); conditions: SEQ ID NO: 1, ATP BS
T1 construct: to get the native cell lysate; host or cells: A375 cell lysate

ABCB10 = target: T2, ABCB10 (Homo sapiens, UniProt Q9NRK6); conditions: ABCB10, SEQ ID NO: 2, ATP BS
T2 construct: to get the native cell lysate; host or cells: A375 cell lysate

ABCC4 = target: T3, ABCC4 (Homo sapiens, UniProt O15439)
T3 construct: to get the native cell lysate; host or cells: A375 cell lysate

ACACB = target: T4, ACACB (Homo sapiens, UniProt O00763); conditions: SEQ ID NO: 21, ATP BS
T4 construct: to get the native cell lysate; host or cells: A375 cell lysate

ACLY = target: T5, ACLY (Homo sapiens, UniProt P53396)
T5 construct: to get the native cell lysate; host or cells: A375 cell lysate

[1] = tested on: ACTA2, ACTB, ACTBL2, ACTC1, ACTG1; conditions: ACTBL2, ACTC1, ACTG1, SEQ ID NO: 24, ATP BS
ACTR2 = target: T6, ACTR2 (Homo sapiens, UniProt P61160)
T6 construct: to get the native cell lysate; host or cells: A375 cell lysate

AK1 = target: T7, AK1 (Homo sapiens, UniProt P00568)
T7 construct: to get the native cell lysate; host or cells: A375 cell lysate

CCT3 = target: T8, CCT3 (Homo sapiens, UniProt P49368); conditions: CCT3, SEQ ID NO: 52, ATP BS
T8 construct: to get the native cell lysate; host or cells: A375 cell lysate

CCT4 = target: T9, CCT4 (Homo sapiens, UniProt P50991); conditions: CCT4, SEQ ID NO: 53, ATP BS
T9 construct: to get the native cell lysate; host or cells: A375 cell lysate

DCTPP1 = target: T10, DCTPP1 (Homo sapiens, UniProt Q9H773); conditions: DCTPP1, SEQ ID NO: 65, ATP BS
T10 construct: endogenous in cells; host or cells: A375 cell lysate

DYNC1H1 = target: T11, DYNC1H1 (Homo sapiens, UniProt Q14204)
T11 construct: endogenous in cells; host or cells: A375 cell lysate

HPRT1 = target: T12, HPRT1 (Homo sapiens, UniProt P00492); conditions: HPRT1, SEQ ID NO: 93, ATP BS
T12 construct: to get the native cell lysate; endogenous in cells; host or cells: A375

[2] = tested on: HSP90AA, HSP90AA2, HSP90AB1; conditions: HSP90AA2, HSP90AB1, SEQ ID NO: 96, ATP BS
HSPA2 = target: T13, HSPA2 (Homo sapiens, UniProt P54652)
T13 construct: to get the native cell lysate; endogenous in cells; host or cells: A375

MTHFD1L = target: T14, MTHFD1L (Homo sapiens, UniProt Q6UB35); conditions: SEQ ID NO: 126, ATP BS
T14 construct: to get the native cell lysate; endogenous in cells; host or cells: A375

NDUFA10 = target: T15, NDUFA10 (Homo sapiens, UniProt O95299); conditions: NDUFA10, SEQ ID NO: 132, ATP BS
T15 construct: to get the native cell lysate; endogenous in cells; host or cells: A375

NSF = target: T16, NSF (Homo sapiens, UniProt P46459)
T16 construct: to get the native cell lysate; endogenous in cells; host or cells: A375

NTPCR = target: T17, NTPCR (Homo sapiens, UniProt Q9BSD7); conditions: SEQ ID NO: 141, ATP BS
T17 construct: to get the native cell lysate; endogenous in cells; host or cells: A375

NUDT1 = target: T18, NUDT1 (Homo sapiens, UniProt P36639)
T18 construct: to get the native cell lysate; endogenous in cells; host or cells: A375

OLA1 = target: T19, OLA1 (Homo sapiens, UniProt Q9NTK5); conditions: OLA1, SEQ ID NO: 150, ATP BS
T19 construct: to get the native cell lysate; endogenous in cells; host or cells: A375

RFC1 = target: T20, RFC1 (Homo sapiens, UniProt P35251); conditions: RFC1, SEQ ID NO: 183, ATP BS
T20 construct: to get the native cell lysate; endogenous in cells; host or cells: A375 cell lysate

RFC2 = target: T21, RFC2 (Homo sapiens, UniProt P35250); conditions: RFC2, SEQ ID NO: 184, ATP BS
T21 construct: to get the native cell lysate; endogenous in cells; host or cells: A375 cell lysate

SMC4 = target: T22, SMC4 (Homo sapiens, UniProt Q9NTJ3); conditions: SMC4, SEQ ID NO: 195, ATP BS
T22 construct: to get the native cell lysate; endogenous in cells; host or cells: A375 cell lysate

TRMU = target: T23, TRMU (Homo sapiens, UniProt O75648)
T23 construct: to get the native cell lysate; endogenous in cells; host or cells: A375 cell lysate

UBA2 = target: T24, UBA2 (Homo sapiens, UniProt Q9UBT2)
T24 construct: to get the native cell lysate; endogenous in cells; host or cells: A375 cell lysate

VPS4A, VPS4B = conditions: SEQ ID NO: 229, ATP BS
XRCC5 = target: T25, XRCC5 (Homo sapiens, UniProt P13010); conditions: XRCC5, SEQ ID NO: 231, ATP BS
T25 construct: to get the native cell lysate; endogenous in cells; host or cells: A375 cell lysate

YME1L1 = target: T26, YME1L1 (Homo sapiens, UniProt Q96TA2); conditions: YME1L1, SEQ ID NO: 233, ATP BS
T26 construct: to get the native cell lysate; endogenous in cells; host or cells: A375 cell lysate

T23 sequence (O75648 whole entry): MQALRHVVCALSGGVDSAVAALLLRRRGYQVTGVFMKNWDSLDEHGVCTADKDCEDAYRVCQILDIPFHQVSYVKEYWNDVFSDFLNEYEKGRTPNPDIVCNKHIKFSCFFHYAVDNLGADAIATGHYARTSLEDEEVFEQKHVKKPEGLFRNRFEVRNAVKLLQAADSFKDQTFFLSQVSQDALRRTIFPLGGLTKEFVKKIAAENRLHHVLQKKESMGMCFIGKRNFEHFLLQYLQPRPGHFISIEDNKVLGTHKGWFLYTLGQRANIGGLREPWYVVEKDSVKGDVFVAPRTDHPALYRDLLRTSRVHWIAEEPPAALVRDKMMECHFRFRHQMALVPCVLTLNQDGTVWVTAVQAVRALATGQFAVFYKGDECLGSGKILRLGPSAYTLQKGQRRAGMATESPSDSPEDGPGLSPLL
T13 sequence (P54652 whole entry): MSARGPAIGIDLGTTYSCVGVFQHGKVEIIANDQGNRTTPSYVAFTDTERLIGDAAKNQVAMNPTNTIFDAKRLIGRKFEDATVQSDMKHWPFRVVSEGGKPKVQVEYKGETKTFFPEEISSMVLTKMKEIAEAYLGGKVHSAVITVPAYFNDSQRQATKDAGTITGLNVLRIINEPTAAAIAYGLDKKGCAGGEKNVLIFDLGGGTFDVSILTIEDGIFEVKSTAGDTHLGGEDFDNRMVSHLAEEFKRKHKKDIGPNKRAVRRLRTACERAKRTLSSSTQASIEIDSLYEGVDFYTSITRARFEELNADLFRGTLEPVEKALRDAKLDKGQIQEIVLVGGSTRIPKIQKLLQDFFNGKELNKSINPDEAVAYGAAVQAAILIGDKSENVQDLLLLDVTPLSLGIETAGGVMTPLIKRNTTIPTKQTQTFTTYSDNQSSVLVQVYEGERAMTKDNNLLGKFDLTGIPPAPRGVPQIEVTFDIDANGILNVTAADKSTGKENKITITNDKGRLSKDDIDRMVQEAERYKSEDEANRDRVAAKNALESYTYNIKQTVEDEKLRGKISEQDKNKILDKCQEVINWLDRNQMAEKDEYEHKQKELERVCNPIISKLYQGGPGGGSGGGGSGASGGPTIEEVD
T5 sequence (P53396 whole entry): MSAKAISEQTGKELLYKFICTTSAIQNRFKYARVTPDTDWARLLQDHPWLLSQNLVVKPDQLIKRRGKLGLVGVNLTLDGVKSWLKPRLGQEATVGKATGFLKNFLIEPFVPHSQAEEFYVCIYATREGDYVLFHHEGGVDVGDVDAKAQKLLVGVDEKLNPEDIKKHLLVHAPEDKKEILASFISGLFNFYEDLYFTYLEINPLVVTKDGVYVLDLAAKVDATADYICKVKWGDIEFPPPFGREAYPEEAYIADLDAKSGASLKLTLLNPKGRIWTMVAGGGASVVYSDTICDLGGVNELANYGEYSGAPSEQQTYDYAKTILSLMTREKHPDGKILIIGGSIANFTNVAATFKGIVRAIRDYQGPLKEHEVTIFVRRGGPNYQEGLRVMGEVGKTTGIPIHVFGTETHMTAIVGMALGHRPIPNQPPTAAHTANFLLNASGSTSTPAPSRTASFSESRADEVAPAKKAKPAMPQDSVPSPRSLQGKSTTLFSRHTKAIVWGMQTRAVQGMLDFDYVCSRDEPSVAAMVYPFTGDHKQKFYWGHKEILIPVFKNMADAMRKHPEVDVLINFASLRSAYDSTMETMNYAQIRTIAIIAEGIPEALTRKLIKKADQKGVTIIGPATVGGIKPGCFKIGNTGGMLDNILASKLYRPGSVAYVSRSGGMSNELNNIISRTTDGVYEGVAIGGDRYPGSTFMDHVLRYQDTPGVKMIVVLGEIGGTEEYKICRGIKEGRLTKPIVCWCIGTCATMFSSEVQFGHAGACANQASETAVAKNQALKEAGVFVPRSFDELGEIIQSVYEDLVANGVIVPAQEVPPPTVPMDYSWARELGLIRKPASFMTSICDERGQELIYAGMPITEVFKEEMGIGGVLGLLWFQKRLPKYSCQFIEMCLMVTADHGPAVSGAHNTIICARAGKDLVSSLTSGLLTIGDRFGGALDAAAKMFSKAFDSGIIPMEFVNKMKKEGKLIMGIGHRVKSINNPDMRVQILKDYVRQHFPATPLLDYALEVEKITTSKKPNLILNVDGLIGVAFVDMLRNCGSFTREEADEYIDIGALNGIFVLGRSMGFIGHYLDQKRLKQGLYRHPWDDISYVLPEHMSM
T24 sequence (Q9UBT2 whole entry): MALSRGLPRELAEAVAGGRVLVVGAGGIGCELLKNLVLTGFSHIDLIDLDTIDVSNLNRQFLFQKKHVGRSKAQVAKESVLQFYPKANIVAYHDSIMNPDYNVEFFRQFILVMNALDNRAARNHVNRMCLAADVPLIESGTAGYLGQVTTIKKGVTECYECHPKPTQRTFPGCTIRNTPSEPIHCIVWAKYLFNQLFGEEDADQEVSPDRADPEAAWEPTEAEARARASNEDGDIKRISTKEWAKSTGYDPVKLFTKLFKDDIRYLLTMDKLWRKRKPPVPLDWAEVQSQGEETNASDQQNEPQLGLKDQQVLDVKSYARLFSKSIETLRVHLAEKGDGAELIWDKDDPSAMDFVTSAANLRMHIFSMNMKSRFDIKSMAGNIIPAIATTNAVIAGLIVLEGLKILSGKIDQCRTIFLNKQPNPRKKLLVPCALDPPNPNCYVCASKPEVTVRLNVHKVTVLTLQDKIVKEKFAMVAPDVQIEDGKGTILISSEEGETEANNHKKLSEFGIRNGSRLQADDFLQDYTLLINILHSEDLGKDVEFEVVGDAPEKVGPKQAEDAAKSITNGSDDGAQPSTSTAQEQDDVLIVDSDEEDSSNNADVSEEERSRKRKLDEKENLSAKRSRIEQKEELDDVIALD
T24 sequence (Q9UBE0 whole entry partner): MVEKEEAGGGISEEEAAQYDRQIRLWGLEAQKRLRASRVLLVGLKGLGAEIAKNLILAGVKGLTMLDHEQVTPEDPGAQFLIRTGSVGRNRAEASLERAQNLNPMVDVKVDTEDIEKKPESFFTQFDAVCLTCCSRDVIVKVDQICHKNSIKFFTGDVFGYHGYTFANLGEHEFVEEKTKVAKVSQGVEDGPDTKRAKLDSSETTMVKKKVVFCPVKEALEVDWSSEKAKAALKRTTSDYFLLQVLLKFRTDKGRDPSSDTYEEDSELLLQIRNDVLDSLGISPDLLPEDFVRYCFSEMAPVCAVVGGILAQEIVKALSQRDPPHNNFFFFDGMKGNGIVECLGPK
T7 sequence (P00568 whole entry): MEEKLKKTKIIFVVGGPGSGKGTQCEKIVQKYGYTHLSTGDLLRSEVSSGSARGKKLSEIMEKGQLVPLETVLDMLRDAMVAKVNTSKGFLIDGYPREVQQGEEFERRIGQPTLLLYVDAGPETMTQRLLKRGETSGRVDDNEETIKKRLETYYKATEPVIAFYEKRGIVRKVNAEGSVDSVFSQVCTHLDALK
T3 sequence (O15439 whole entry): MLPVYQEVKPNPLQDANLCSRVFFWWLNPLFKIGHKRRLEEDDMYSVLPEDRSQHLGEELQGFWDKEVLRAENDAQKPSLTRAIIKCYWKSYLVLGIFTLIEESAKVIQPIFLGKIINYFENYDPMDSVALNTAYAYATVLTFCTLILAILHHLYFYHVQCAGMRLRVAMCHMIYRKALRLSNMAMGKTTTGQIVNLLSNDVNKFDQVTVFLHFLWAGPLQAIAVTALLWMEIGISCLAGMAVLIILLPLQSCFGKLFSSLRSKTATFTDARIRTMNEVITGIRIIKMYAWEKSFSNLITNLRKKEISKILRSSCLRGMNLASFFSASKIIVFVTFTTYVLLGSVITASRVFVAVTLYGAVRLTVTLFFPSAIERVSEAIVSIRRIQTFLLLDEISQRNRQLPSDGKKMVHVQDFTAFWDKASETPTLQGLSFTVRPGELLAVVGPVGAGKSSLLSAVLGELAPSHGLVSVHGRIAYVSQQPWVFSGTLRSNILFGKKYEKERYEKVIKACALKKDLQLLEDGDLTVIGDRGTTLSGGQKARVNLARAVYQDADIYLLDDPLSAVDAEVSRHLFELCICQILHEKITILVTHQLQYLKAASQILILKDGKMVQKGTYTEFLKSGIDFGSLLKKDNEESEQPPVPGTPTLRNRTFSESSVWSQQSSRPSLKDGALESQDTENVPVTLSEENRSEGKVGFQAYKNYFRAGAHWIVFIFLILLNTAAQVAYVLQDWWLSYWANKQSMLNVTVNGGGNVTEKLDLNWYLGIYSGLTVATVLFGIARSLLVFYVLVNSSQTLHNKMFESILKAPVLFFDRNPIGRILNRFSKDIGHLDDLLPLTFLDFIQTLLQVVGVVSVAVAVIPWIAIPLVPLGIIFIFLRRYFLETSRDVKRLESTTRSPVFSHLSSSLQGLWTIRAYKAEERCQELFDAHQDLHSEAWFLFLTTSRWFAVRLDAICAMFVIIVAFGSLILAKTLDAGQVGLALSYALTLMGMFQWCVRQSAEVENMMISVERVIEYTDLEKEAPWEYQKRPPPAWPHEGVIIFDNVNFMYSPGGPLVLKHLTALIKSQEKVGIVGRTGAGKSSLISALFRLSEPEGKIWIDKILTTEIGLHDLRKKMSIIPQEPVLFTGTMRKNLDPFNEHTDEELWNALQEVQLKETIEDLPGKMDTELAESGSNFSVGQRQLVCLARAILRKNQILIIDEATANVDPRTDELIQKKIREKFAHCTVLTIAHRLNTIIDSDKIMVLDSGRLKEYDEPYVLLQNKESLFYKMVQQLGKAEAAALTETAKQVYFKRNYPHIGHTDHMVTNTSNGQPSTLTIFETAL
T15 sequence (O95299 36-355): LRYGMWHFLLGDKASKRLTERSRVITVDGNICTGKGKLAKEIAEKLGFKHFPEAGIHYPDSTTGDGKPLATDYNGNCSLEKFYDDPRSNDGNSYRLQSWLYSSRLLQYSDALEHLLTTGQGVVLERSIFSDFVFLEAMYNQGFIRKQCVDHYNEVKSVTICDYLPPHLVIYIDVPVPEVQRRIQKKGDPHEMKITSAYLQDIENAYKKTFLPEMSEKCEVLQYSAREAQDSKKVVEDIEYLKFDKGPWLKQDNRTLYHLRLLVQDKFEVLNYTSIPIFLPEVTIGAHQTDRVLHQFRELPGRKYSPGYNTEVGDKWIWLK

With Cn1c(=O)[nH]c2ccc(-c3cccc(C(=O)NC4CCn5ccnc5C4)c3)cc21 (stereo not shown) [Z36-MP5, 3-(3-methyl-2-oxo-2,3-dihydro-1H-benzo[d]imidazol-5-yl)-N-(5,6,7,8-tetrahydroimidazo[1,2-a]pyridin-7-yl)benzamide] the “Inhibition (%) by 1 μM Z36-MP5” value (AARS) was −29.97%, the “Inhibition (%) by 1 μM Z36-MP5” value (ABCB10) was −6.14% and the “Inhibition (%) by 1 μM Z36-MP5” value (ABCC4; ABCC4, SEQ ID NO: 11, ATP BS) was 1.76%. The “Inhibition (%) by 1 μM Z36-MP5” value (ABCC4; ABCC4, SEQ ID NO: 12, ATP BS) was 8.93%, the “Inhibition (%) by 1 μM Z36-MP5” value (ACACB) was −1.87% and the “Inhibition (%) by 1 μM Z36-MP5” value (ACLY; SEQ ID NO: 22, ATP BS) was −6.87%. For the same compound, the “Inhibition (%) by 1 μM Z36-MP5” value (ACLY; SEQ ID NO: 23, ATP BS) was 2.00%, the “Inhibition (%) by 1 μM Z36-MP5” value [1] was −15.29% and the “Inhibition (%) by 1 μM Z36-MP5” value (ACTR2; ACTR2, SEQ ID NO: 25, ATP BS) was −16.82%. For the same compound, the “Inhibition (%) by 1 μM Z36-MP5” value (ACTR2; ACTR2, SEQ ID NO: 26, ATP BS) was −2.20%, the “Inhibition (%) by 1 μM Z36-MP5” value (AK1; AK1, SEQ ID NO: 31, ATP BS) was −7.19% and the “Inhibition (%) by 1 μM Z36-MP5” value (AK1; AK1, SEQ ID NO: 32, ATP BS) was −9.87%. The “Inhibition (%) by 1 μM Z36-MP5” value (CCT3) was 10.09%, the “Inhibition (%) by 1 μM Z36-MP5” value (CCT4) was 11.95% and the “Inhibition (%) by 1 μM Z36-MP5” value (DCTPP1) was 12.74%. The “Inhibition (%) by 1 μM Z36-MP5” value (DYNC1H1; DYNC1H1, SEQ ID NO: 74, ATP BS) was −1.99%, the “Inhibition (%) by 1 μM Z36-MP5” value (DYNC1H1; DYNC1H1, SEQ ID NO: 75, ATP BS) was 0.38% and the “Inhibition (%) by 1 μM Z36-MP5” value (HPRT1) was 12.92%. The “Inhibition (%) by 1 μM Z36-MP5” value [2] was −5.50%, the “Inhibition (%) by 1 μM Z36-MP5” value (HSPA2; HSPA2, SEQ ID NO: 102, ATP BS) was −1.50% and the “Inhibition (%) by 1 μM Z36-MP5” value (HSPA2; HSPA2, SEQ ID NO: 103, ATP BS) was −5.18%. For the same compound, the “Inhibition (%) by 1 μM Z36-MP5” value (MTHFD1L) was 1.16%, the “Inhibition (%) by 1 μM Z36-MP5” value (NDUFA10) was 14.09% and the “Inhibition (%) by 1 μM Z36-MP5” value (NSF; SEQ ID NO: 138, ATP BS) was 6.03%. The “Inhibition (%) by 1 μM Z36-MP5” value (NSF; SEQ ID NO: 139, ATP BS) was −6.18%, the “Inhibition (%) by 1 μM Z36-MP5” value (NTPCR) was −14.99% and the “Inhibition (%) by 1 μM Z36-MP5” value (NUDT1; NUDT1, SEQ ID NO: 142, ATP BS) was 25.70%. The “Inhibition (%) by 1 μM Z36-MP5” value (NUDT1; NUDT1, SEQ ID NO: 143, ATP BS) was 22.17%, the “Inhibition (%) by 1 μM Z36-MP5” value (NUDT1; NUDT1, SEQ ID NO: 144, ATP BS) was 18.32% and the “Inhibition (%) by 1 μM Z36-MP5” value (OLA1) was −0.68%. The “Inhibition (%) by 1 μM Z36-MP5” value (RFC1) was −12.52%, the “Inhibition (%) by 1 μM Z36-MP5” value (RFC2) was 1.52% and the “Inhibition (%) by 1 μM Z36-MP5” value (SMC4) was −7.11%. For the same compound, the “Inhibition (%) by 1 μM Z36-MP5” value (TRMU; SEQ ID NO: 211, ATP BS) was −13.98%, the “Inhibition (%) by 1 μM Z36-MP5” value (TRMU; SEQ ID NO: 212, ATP BS) was −2.57% and the “Inhibition (%) by 1 μM Z36-MP5” value (UBA2; UBA2, SEQ ID NO: 218, ATP BS) was 0.55%. The “Inhibition (%) by 1 μM Z36-MP5” value (UBA2; UBA2, SEQ ID NO: 219, ATP BS) was 7.64%, the “Inhibition (%) by 1 μM Z36-MP5” value (VPS4A, VPS4B) was −2.55% and the “Inhibition (%) by 1 μM Z36-MP5” value (XRCC5) was 2.24%. For the same compound, the “Inhibition (%) by 1 μM Z36-MP5” value (YME1L1) was −10.37%.
